The target of assay [1] is hGYS1 enzyme (recombinant hGYS1/GN1 protein) (Homo sapiens (Human), UniProt P13807). Put plainly: GYS1 coupled enzyme assay (PK/LDH). Conditions: hGYS1/GN1 50 nM, UDP-Glucose 0.8 mM, G6P 1 mM; geometric mean of at least 2 runs. Format: biochemical.
For assay [2], the target named is hGYS2 enzyme (recombinant hGYS2/GN1 protein) (Homo sapiens (Human), UniProt P54840). Nature of the assay: GYS2 coupled enzyme assay (PK/LDH). Format: biochemical. The note with it: geometric mean of at least 2 assay runs on separate days, read-out: Avg_IC50. Summed up:
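Read-out: NADH loss at 340 nm, read each minute for 10 min, slope normalized to controls, duplicate % inhibition fit to Hill (0–100). Enzyme: 200 nM hGYS2/GN1; substrate 2 mM UDP-glucose plus 0.2% glycogen and 2 mM G6P; pH 7.5 Tris, 2.5% DMSO.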

Some results are limits rather than exact numbers.

Sequence of hGYS2 enzyme (recombinant hGYS2/GN1 protein) (P54840 whole entry): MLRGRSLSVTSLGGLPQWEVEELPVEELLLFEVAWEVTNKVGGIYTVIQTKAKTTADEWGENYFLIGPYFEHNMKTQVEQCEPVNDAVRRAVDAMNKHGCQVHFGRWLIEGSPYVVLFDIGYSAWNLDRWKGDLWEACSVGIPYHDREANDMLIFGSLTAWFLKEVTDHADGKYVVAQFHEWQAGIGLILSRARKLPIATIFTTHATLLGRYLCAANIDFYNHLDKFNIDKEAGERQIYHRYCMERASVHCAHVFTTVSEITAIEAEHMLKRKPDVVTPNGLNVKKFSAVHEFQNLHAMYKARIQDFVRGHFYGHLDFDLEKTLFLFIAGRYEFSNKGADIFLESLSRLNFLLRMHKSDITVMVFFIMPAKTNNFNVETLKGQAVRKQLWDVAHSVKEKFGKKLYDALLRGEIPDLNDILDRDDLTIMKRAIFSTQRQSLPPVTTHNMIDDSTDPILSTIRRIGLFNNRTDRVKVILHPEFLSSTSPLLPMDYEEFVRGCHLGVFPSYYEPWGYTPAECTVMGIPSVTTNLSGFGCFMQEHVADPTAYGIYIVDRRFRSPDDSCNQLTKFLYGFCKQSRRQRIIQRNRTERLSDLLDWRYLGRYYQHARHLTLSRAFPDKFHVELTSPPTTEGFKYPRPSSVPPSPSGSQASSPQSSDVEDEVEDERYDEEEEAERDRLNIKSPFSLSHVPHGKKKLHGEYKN
Sequence of hGYS2 enzyme (recombinant hGYS2/GN1 protein) (P46976 whole entry partner): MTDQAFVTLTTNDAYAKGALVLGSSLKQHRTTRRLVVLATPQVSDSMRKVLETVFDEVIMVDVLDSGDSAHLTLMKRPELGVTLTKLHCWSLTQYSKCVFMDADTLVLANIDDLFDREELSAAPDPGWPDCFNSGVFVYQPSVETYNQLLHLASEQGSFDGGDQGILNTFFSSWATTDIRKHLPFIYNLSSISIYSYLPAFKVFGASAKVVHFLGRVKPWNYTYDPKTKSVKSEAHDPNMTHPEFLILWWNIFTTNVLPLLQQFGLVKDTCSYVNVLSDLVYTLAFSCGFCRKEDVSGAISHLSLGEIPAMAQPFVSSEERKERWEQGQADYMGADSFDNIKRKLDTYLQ
Sequence of hGYS1 enzyme (recombinant hGYS1/GN1 protein) (P13807 whole entry): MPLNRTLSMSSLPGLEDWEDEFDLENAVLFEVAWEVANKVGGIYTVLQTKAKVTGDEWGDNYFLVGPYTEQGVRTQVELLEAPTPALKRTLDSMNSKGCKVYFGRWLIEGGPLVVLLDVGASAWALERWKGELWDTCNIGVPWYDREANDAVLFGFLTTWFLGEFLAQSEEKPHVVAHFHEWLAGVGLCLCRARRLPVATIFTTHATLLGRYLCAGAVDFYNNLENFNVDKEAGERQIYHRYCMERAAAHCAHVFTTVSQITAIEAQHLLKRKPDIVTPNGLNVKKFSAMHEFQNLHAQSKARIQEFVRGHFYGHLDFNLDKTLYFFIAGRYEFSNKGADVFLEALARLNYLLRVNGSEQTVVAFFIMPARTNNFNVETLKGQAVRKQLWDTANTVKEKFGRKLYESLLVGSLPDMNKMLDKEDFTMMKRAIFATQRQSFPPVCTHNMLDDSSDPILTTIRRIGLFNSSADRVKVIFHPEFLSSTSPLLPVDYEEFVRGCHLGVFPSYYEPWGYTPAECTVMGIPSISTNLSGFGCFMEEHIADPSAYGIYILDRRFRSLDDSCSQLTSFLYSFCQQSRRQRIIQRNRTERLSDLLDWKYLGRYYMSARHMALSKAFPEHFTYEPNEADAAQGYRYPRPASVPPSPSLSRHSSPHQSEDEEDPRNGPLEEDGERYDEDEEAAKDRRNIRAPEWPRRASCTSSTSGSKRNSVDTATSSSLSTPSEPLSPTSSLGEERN
Sequence of hGYS1 enzyme (recombinant hGYS1/GN1 protein) (P46976 whole entry partner): as the sequence (P46976 whole entry partner) above

Turning to `CC(C)c1ccc([C@@H](NC(=O)[C@@H]2C[C@@H](F)CN2C(=O)CCc2c[nH]c3ncccc23)c2ccccc2)cc1` [Compound 104, (2S,4R)-4-fluoro-N-[(S)-phenyl[4-(propan-2-yl)phenyl]methyl]-1-(3-{1H-pyrrolo[2,3-b]pyridin-3-yl}propanoyl)pyrrolidine-2-carboxamide], the figures for the IC50 in assay [1] and in assay [2] were 61 nM and more than 100000 nM, respectively.

Consider `CC(C)c1ccc([C@@H](NC(=O)[C@@H]2C[C@@H](F)CN2C(=O)C(C)n2cnnn2)c2ccccc2)cc1` (stereo partly drawn) [Compound 24, (2S,4R)-4-fluoro-N-[(S)-phenyl[4-(propan-2-yl)phenyl]methyl]-1-[2-(1H-1,2,3,4-tetrazol-1-yl)propanoyl]pyrrolidine-2-carboxamide], for which the values for the IC50 in assay [1] and in assay [2] were 50 nM and more than 100000 nM, respectively.

In the case of `CC(=O)N(CC(N)=O)CC(=O)N1C[C@H](F)C[C@H]1C(=O)N[C@@H](c1ccccc1)c1ccc(C(C)C)cc1` [Compound 189, (2S,4R)-1-{2-[N-(carbamoylmethyl)acetamido]acetyl}-4-fluoro-N-[(S)-phenyl[4-(propan-2-yl)phenyl]methyl]pyrrolidine-2-carboxamide], the IC50 in assay [1] is 95 nM; in assay [2], more than 100000 nM.

On to `CC(C)c1ccc(C(NC(=O)[C@@H]2C[C@@H](F)CN2C(=O)Cc2cnn[nH]2)c2ccc(N)nc2)cc1F` (single isomer, unassigned) [Compound 620, (2S,4R)-N-[(R) or (S)-(6-aminopyridin-3-yl)[3-fluoro-4-(propan-2-yl)phenyl]methyl]-4-fluoro-1-[2-(1H-1,2,3-triazol-5-yl)acetyl]pyrrolidine-2-carboxamide], for which the IC50 in assay [1] was 142 nM; in assay [2], more than 100000 nM.

Regarding `CC(=O)N1CC(C)(CC(=O)N2C[C@H](F)C[C@H]2C(=O)N[C@@H](c2ccccc2)c2ccc(C(C)C)cc2)C1` [Compound 154, (2S,4R)-1-[2-(1-acetyl-3-methylazetidin-3-yl)acetyl]-4-fluoro-N-[(S)-phenyl[4-(propan-2-yl)phenyl]methyl]pyrrolidine-2-carboxamide], the IC50 is 285 nM in assay [1] and more than 100000 nM in assay [2].

`CC(=O)N1CCC[C@H]1C(=O)N[C@@H](c1ccccc1)c1ccc(C(C)C)cn1` [Compound 245, (2S)-1-acetyl-N-[(S)-phenyl[5-(propan-2-yl)pyridin-2-yl]methyl]pyrrolidine-2-carboxamide]: the IC50 in assay [1] was 1310 nM; in assay [2], more than 100000 nM.

As for `O=C(N[C@@H](c1ccccc1)c1ccc(C2CC2)c(F)c1)[C@@H]1C[C@@H](F)CN1C(=O)Cc1cn[nH]c1` [Compound 437, (2S,4R)-N-[(S)-(4-cyclopropyl-3-fluorophenyl)(phenyl)methyl]-4-fluoro-1-[2-(1H-pyrazol-4-yl)acetyl]pyrrolidine-2-carboxamide], the IC50 in assay [1] is 157 nM; in assay [2] it was more than 100000 nM.

Regarding `CC(C)c1ccc([C@@H](NC(=O)[C@@H]2C[C@@H](F)CN2C(=O)CCn2cncn2)c2ccccc2)cc1` [Compound 35, (2S,4R)-4-fluoro-N-[(S)-phenyl[4-(propan-2-yl)phenyl]methyl]-1-[3-(1H-1,2,4-triazol-1-yl)propanoyl]pyrrolidine-2-carboxamide], the IC50 is 185 nM in assay [1] and more than 100000 nM in assay [2].

Consider `Cc1nccn1CCCC(=O)N1C[C@H](F)C[C@H]1C(=O)N[C@@H](c1ccccc1)c1ccc(C(C)C)cc1` [Compound 105, (2S,4R)-4-fluoro-1-[4-(2-methyl-1H-imidazol-1-yl)butanoyl]-N-[(S)-phenyl[4-(propan-2-yl)phenyl]methyl]pyrrolidine-2-carboxamide], for which the IC50 is 249 nM in assay [1] and more than 100000 nM in assay [2].

Turning to `Cc1cc(C)n(CCC(=O)N2C[C@H](F)C[C@H]2C(=O)N[C@@H](c2ccccc2)c2ccc(C(C)C)cc2)n1` [Compound 106, (2S,4R)-1-[3-(3,5-dimethyl-1H-pyrazol-1-yl)propanoyl]-4-fluoro-N-[(S)-phenyl[4-(propan-2-yl)phenyl]methyl]pyrrolidine-2-carboxamide], the figures for the IC50 in assay [1] and in assay [2] were 186 nM and more than 100000 nM, respectively.

In the case of `Cc1cc(CC(=O)N2C[C@H](F)C[C@H]2C(=O)N[C@@H](c2ccccc2)c2ccc(C(C)C)cc2)on1` [Compound 40, (2S,4R)-4-fluoro-1-[2-(3-methyl-1,2-oxazol-5-yl)acetyl]-N-[(S)-phenyl[4-(propan-2-yl)phenyl]methyl]pyrrolidine-2-carboxamide], the IC50 is 26 nM in assay [1] and more than 100000 nM in assay [2].

Turning to `CC(C)c1ccc([C@@H](NC(=O)[C@@H]2C[C@@H](F)CN2C(=O)CCc2cncnc2)c2ccccc2)cc1` [Compound 60, (2S,4R)-4-fluoro-N-[(S)-phenyl[4-(propan-2-yl)phenyl]methyl]-1-[3-(pyrimidin-5-yl)propanoyl]pyrrolidine-2-carboxamide], the IC50 in assay [1] was 188 nM; in assay [2], more than 100000 nM.

In the case of `Cc1nnnn1CC(=O)N1C[C@H](F)C[C@H]1C(=O)N[C@@H](c1ccccc1)c1ccc(C2CC2)c(F)c1` [Compound 432, (2S,4R)-N-[(S)-(4-cyclopropyl-3-fluorophenyl)(phenyl)methyl]-4-fluoro-1-[2-(5-methyl-1H-1,2,3,4-tetrazol-1-yl)acetyl]pyrrolidine-2-carboxamide], the figures for the IC50 in assay [1] and in assay [2] were 185 nM and more than 100000 nM, respectively.

With `CC(C)c1ccc([C@@H](NC(=O)[C@@H]2C[C@@H](F)CN2C(=O)C(O)C(C)C)c2ccccc2)cc1` (stereo partly drawn) [Compound 185, (2S,4R)-4-fluoro-1-(2-hydroxy-3-methylbutanoyl)-N-[(S)-phenyl[4-(propan-2-yl)phenyl]methyl]pyrrolidine-2-carboxamide], the IC50 in assay [1] was 26 nM; in assay [2] it was more than 100000 nM.

With `CC(C)c1ccc([C@@H](NC(=O)[C@@H]2CCCN2C(=O)Cc2cnn[nH]2)c2cccc3[nH]c(=O)[nH]c23)cc1` [Compound 644, (2S)-N-[(R)-(2-oxo-2,3-dihydro-1H-1,3-benzodiazol-4-yl)[4-(propan-2-yl)phenyl]methyl]-1-[2-(1H-1,2,3-triazol-5-yl)acetyl]pyrrolidine-2-carboxamide], the IC50 in assay [1] was 273 nM; in assay [2], more than 100000 nM.

In the case of `O=C(N[C@@H](c1ccccc1)c1ccc(C2CC2)c(F)c1)[C@@H]1C[C@@H](F)CN1C(=O)CN1CCOC1=O` [Compound 424, (2S,4R)-N-[(S)-(4-cyclopropyl-3-fluorophenyl)(phenyl)methyl]-4-fluoro-1-[2-(2-oxo-1,3-oxazolidin-3-yl)acetyl] pyrrolidine-2-carboxamide], the IC50 in assay [1] is 287 nM; in assay [2] it was more than 100000 nM.

Regarding `COc1ccc(CC(=O)N2C[C@H](F)C[C@H]2C(=O)N[C@@H](c2ccccc2)c2ccc(C(C)C)cc2)cc1` [Compound 88, (2S,4R)-4-fluoro-1-[2-(4-methoxyphenyl)acetyl]-N-[(S)-phenyl[4-(propan-2-yl)phenyl]methyl]pyrrolidine-2-carboxamide], the IC50 in assay [1] was 49 nM; in assay [2], more than 100000 nM.

In the case of `CC(=O)N1C[C@@H](O)C[C@H]1C(=O)N[C@@H](c1ccccc1)c1ccc(C(C)C)cc1` [Compound 204, (2S,4S)-1-acetyl-4-hydroxy-N-[(S)-phenyl[4-(propan-2-yl)phenyl]methyl]pyrrolidine-2-carboxamide], the IC50 in assay [1] was 3530 nM; in assay [2] it was more than 100000 nM.

As to `CC(C)c1ccc([C@H](NC(=O)[C@@H]2C[C@@H](F)CN2C(=O)Cc2cnn[nH]2)c2ccccc2)cc1Cl` [Compound 671, (2S,4R)-N-[(R)-[3-chloro-4-(propan-2-yl)phenyl](phenyl)methyl]-4-fluoro-1-[2-(1H-1,2,3-triazol-5-yl)acetyl]pyrrolidine-2-carboxamide], the figures for the IC50 in assay [1] and in assay [2] were 849 nM and more than 100000 nM, respectively.

Consider `CC(C)c1ccc([C@@H](NC(=O)[C@@H]2C[C@@H](F)CN2C(=O)CCCn2ccnc2)c2ccccc2)cc1` [Compound 75, (2S,4R)-4-fluoro-1-[4-(1H-imidazol-1-yl)butanoyl]-N-[(S)-phenyl[4-(propan-2-yl)phenyl]methyl]pyrrolidine-2-carboxamide], for which the IC50 in assay [1] is 224 nM; in assay [2], more than 100000 nM.

Regarding `O=C(N[C@@H](c1ccccc1)c1ccc(C2CC2)c(Cl)c1)[C@@H]1C[C@@H](F)CN1C(=O)Cc1cnn[nH]1` [Compound 664, (2S,4R)-N-[(S)-(3-chloro-4-cyclopropylphenyl) (phenyl)methyl]-4-fluoro-1-[2-(1H-1,2,3-triazol-5-yl)acetyl]pyrrolidine-2-carboxamide], the IC50 in assay [1] was 115 nM; in assay [2], more than 100000 nM.

`CC(Cc1ccncc1)C(=O)N1C[C@H](F)C[C@H]1C(=O)N[C@@H](c1ccccc1)c1ccc(C(C)C)cc1` (stereo partly drawn) [Compound 98, (2S,4R)-4-fluoro-1-[2-methyl-3-(pyridin-4-yl)propanoyl]-N-[(S)-phenyl[4-(propan-2-yl)phenyl]methyl]pyrrolidine-2-carboxamide]: the IC50 is 244 nM in assay [1] and more than 100000 nM in assay [2].

On to `CC(C)c1ccc([C@@H](NC(=O)[C@@H]2C[C@@H](F)CN2C(=O)CCc2cnccn2)c2ccccc2)cc1` [Compound 59, (2S,4R)-4-fluoro-N-[(S)-phenyl[4-(propan-2-yl)phenyl]methyl]-1-[3-(pyrazin-2-yl)propanoyl]pyrrolidine-2-carboxamide], for which the IC50 in assay [1] was 85 nM; in assay [2] it was more than 100000 nM.

The values are drawn from patent US11814367B2, “Inhibitors of glycogen synthase 1 (GYS1) and methods of use thereof” (Maze Therapeutics, Inc., priority 2021, dated 2023).
